Molecular target: T1, human TLR7 (Homo sapiens, UniProt Q9NYK1)
T1 construct: host or cells: HEK293 (HEK-Blue hTLR7)
T1 sequence (Q9NYK1 27-1049): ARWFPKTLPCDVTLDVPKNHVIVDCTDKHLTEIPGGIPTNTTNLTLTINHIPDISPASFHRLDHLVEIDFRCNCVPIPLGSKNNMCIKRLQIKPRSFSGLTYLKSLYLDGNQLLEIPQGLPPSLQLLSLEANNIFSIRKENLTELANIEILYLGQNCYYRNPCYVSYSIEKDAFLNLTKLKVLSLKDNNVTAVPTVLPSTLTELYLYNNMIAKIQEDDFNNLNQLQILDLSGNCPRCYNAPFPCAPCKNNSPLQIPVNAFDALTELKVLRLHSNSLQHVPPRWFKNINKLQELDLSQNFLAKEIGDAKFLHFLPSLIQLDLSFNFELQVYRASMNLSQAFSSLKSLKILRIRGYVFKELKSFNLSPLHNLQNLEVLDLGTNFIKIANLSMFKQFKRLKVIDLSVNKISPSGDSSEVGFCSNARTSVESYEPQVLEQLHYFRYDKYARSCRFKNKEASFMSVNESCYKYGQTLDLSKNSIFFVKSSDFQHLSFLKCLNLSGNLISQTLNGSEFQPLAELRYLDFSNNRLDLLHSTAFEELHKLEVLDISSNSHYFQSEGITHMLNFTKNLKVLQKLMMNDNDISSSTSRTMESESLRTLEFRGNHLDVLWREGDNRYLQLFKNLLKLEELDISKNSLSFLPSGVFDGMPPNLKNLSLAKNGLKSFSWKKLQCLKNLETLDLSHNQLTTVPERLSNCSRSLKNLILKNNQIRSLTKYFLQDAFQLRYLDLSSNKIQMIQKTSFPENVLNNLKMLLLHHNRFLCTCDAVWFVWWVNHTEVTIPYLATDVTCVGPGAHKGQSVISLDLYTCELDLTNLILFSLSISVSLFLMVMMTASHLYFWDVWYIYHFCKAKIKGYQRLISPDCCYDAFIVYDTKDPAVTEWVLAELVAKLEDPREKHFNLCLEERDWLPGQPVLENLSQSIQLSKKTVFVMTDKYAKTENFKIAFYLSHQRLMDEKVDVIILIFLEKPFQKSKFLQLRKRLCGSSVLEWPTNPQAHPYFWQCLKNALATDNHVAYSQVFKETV
Assay: HEK293-Blue hTLR7 Reporter Assay (QUANTI-BLUE, SEAP readout)
Assay type: cell-based
Conditions: HEK-Blue-hTLR7 cells
Method: HEK293-Blue hTLR7 Reporter Assay: HEK-Blue-hTLR7 cell line (Invivogen, Cat. No. hkb-htlr7) was designed so that the expression of the secreted embryonic alkaline phosphatase (SEAP) was induced by activating NF-κ and AP-1 via stimulating human TLR7 with TLR7 agonists. HEK-Blue-hTLR7 cells were seeded at a density of 4×10^4 cells/well in a volume of 180 μL in a 96-well plate in DMEM (Cat. No. 11965-092) supplemented with 10% (v/v) heat-inactivated fetal bovine serum (FBS) (Gibco, 10099-1441), 100 U/ml penicillin and 100 μg/ml streptomycin (Gibco, 15140122) containing 50 U/mL penicillin, […] and 10% (v/v) heat-inactivated fetal bovine serum. The cells were settled for 5 hrs, then treated with increasing amounts of tested compounds at 37° C. for 24 hrs. Then 20 μL of the supernatant from each well was incubated with 180 μL Quanti-blue substrate solution at 37° C. for 10-30 mins before the activity of the SEAP was determined at 620-655 nm using a spectrophotometer. The EC50 value for each compound was calculated with GraphPad Prism software using the sigmoidal dose-response function.

[1] = 24 hrs treatment, Table 1, B1-B232

| Molecule | EC50 [1] | EC50 (Table 2, C1-C6) |
| --- | --- | --- |
| CCCCOc1nc(N)c2ncc(Cc3cnc(N4CCN(CCN(C)C)CC4)c(C)c3)n2n1 [Compound B76, 2-butoxy-7-((6-(4-(2-(dimethylamino)ethyl)piperazin-1-yl)-5-methylpyridin-3-yl)methyl)imidazo[2,1-f][1,2,4]triazin-4-amine] | 94 nM |  |
| 6-propoxy-3-(4-(pyrrolidin-1-ylmethyl)benzyl)imidazo[1,2-b]pyridazin-8-amine [Compound C4] |  | > 10000 nM |
| CCCCOc1nc(N)c2ncc(Cc3cnc(N4CCN(C(=O)[C@@H]5CCCN5)CC4)c(C)c3)n2n1 [Compound B68, (S)-4-amino-2-butoxy-7-((5-methyl-6-(4-prolylpiperazin-1-yl)pyridin-3-yl)methyl)imidazo[2,1-f][1,2,4]triazine] | 106 nM |  |
| CCCCc1nc(N)c2ncc(Cc3cnc(N4CCNCC4)c(C)c3)n2n1 [Compound B141, 2-butyl-7-((5-methyl-6-(piperazin-1-yl)pyridin-3-yl)methyl)imidazo[2,1-f][1,2,4]triazin-4-amine] | 154 nM |  |
| CCCC(CCO)Oc1nc(N)c2ncc(Cc3cnc(N4CCC(CNC)CC4)c(C)c3)n2n1 (stereo not shown) [Compound B229, 3-((4-amino-7-((5-methyl-6-(4-((methylamino)methyl)piperidin-1-yl)pyridin-3-yl)methyl)imidazo[2,1-f][1,2,4]triazin-2-yl)oxy)hexan-1-ol] | 14 nM |  |
| CCCCOc1nc(N)c2ncc(Cc3cnc(N4CCN(C(=O)CCCN(C)C)CC4)c(C)c3)n2n1 [Compound B49, 1-(4-(5-((4-amino-2-butoxyimidazo[2,1-f][1,2,4]triazin-7-yl)methyl)-3-methylpyridin-2-yl)piperazin-1-yl)-4-(dimethylamino)butan-1-one] | 124 nM |  |
| Cc1cc(Cc2cnc3c(N)nc(OCCC(C)C)nn23)cnc1N1CCNCC1 [Compound B22, 2-(isopentyloxy)-7-((5-methyl-6-(piperazin-1-yl)pyridin-3-yl)methyl)imidazo[2,1-f][1,2,4]triazin-4-amine] | 496 nM |  |
| CCC[C@H](C)Oc1nc(N)c2ncc(Cc3cnc(N4CCC(NCC(C)C)CC4)c(C)c3)n2n1 [Compound B215, (S)-7-((6-(4-(isobutylamino)piperidin-1-yl)-5-methylpyridin-3-yl)methyl)-2-(pentan-2-yloxy)imidazo[2,1-f][1,2,4]triazin-4-amine] | 4.2 nM |  |
| CCCCOc1nc(N)c2ncc(Cc3cc(C)c(N4CCNCC4)cn3)n2n1 [Compound B33, 2-butoxy-7-((4-methyl-5-(piperazin-1-yl)pyridin-2-yl)methyl)imidazo[2,1-f][1,2,4]triazin-4-amine] | 218 nM |  |
| CCCC(C)Nc1nc(N)c2ncc(Cc3cnc(N4CCN(C(=O)CN(C)C)CC4)c(C)c3)n2n1 (stereo not shown) [Compound B151, 1-(4-(5-((4-amino-2-(pentan-2-ylamino)imidazo[2,1-f][1,2,4]triazin-7-yl)methyl)-3-methylpyridin-2-yl)piperazin-1-yl)-2-(dimethylamino)ethan-1-one] | 3 nM |  |
| CCCCNc1nc(N)c2ncc(Cc3cnc(N4CCC(CN(C)C)CC4)c(C)c3)n2n1 [Compound B96, N2-butyl-7-((6-(4-((dimethylamino)methyl)piperidin-1-yl)-5-methylpyridin-3-yl)methyl)imidazo[2,1-f][1,2,4]triazine-2,4-diamine] | 17 nM |  |
| CCC[C@@H](C)Oc1nc(N)c2ncc(Cc3cnc(N4CCC(N(C)C)CC4)c(C)c3)n2n1 [Compound B127, (R)-7-((6-(4-(dimethylamino)piperidin-1-yl)-5-methylpyridin-3-yl)methyl)-2-(pentan-2-yloxy)imidazo[2,1-f][1,2,4]triazin-4-amine] | 56 nM |  |
| CCC[C@H](C)Oc1nc(N)c2ncc(Cc3cnc(N4CCC(CNC)CC4)c(C)c3)n2n1 (single isomer, unassigned) [Compound B221] | 3.9 nM |  |
| CCCCOc1nc(N)c2ncc(Cc3cnc(N4C[C@@H]5C[C@H]4CN5)c(C)c3)n2n1 [Compound B168, 7-((6-((1S,4S)-2,5-diazabicyclo[2.2.1]heptan-2-yl)-5-methylpyridin-3-yl)methyl)-2-butoxyimidazo[2,1-f][1,2,4]triazin-4-amine] | 124 nM |  |
| CCCC(CO)Nc1nc(N)c2ncc(Cc3cnc(N4CCC(CNC)CC4)c(C)c3)n2n1 (stereo not shown) [Compound B232, 2-((4-amino-7-((5-methyl-6-(4-((methylamino)methyl)piperidin-1-yl)pyridin-3-yl)methyl)imidazo[2,1-f][1,2,4]triazin-2-yl)amino)pentan-1-ol] | 31 nM |  |
| CCCC(CCC)Oc1nc(N)c2ncc(Cc3cnc(N4CCN(C(=O)CN(C)C)CC4)c(C)c3)n2n1 [Compound B188, 1-(4-(5-((4-amino-2-(heptan-4-yloxy)imidazo[2,1-f][1,2,4]triazin-7-yl)methyl)-3-methylpyridin-2-yl)piperazin-1-yl)-2-(dimethylamino)ethan-1-one] | 3.6 nM |  |
| CCCC(CCC)Nc1nc(N)c2ncc(Cc3cnc(N4CCN(C(=O)CNC)CC4)c(C)c3)n2n1 [Compound B196, 1-(4-(5-((4-amino-2-(heptan-4-ylamino)imidazo[2,1-f] [1,2,4]triazin-7-yl)methyl)-3-methylpyridin-2-yl)piperazin-1-yl)-2-(methylamino)ethan-1-one] | 5.7 nM |  |
| 2-butyl-7-((5-methyl-6-(piperazin-1-yl)pyridin-3-yl)methyl)imidazo[2,1-f][1,2,4]triazine-2,4-diamine [Compound B13] | 48 nM |  |
| CC[C@H](C)Oc1nc(N)c2ncc(Cc3cnc(N4CCN(C(=O)CN(C)C)CC4)c(C)c3)n2n1 [Compound B145, (S)-1-(4-(5-((4-amino-2-(sec-butoxy)imidazo[2,1-f] [1,2,4]triazin-7-yl)methyl)-3-methylpyridin-2-yl)piperazin-1-yl)-2-(dimethylamino)ethan-1-one] | 8 nM |  |
| CCCC(Oc1nc(N)c2ncc(Cc3cnc(N4CCNCC4)c(C)c3)n2n1)C1CC1 (stereo not shown) [Compound B202, 2-(1-cyclopropylbutoxy)-7-((5-methyl-6-(piperazin-1-yl)pyridin-3-yl)methyl)imidazo[2,1-f][1,2,4]triazin-4-amine] | 15 nM |  |
| CCC(C)COc1nc(N)c2ncc(Cc3cnc(N4CCNCC4)c(C)c3)n2n1 (stereo not shown) [Compound B113, 7-((5-methyl-6-(piperazin-1-yl)pyridin-3-yl)methyl)-2-(2-methylbutoxy)imidazo[2,1-f][1,2,4]triazin-4-amine] | 447 nM |  |
| CCCCOc1nc(N)c2ncc(Cc3cnc(N4CCC5(CCNCC5)CC4)c(C)c3)n2n1 [Compound B131, 2-butoxy-7-((5-methyl-6-(3,9-diazaspiro[5.5]undecan-3-yl)pyridin-3-yl)methyl)imidazo[2,1-f][1,2,4]triazin-4-amine] | 98 nM |  |
| CCCCOc1nc(N)c2ncc(Cc3cnc(N4CCN(C(=O)CN)CC4)c(C)c3)n2n1 [Compound B24, 2-amino-1-(4-(5-((4-amino-2-butoxyimidazo[2,1-f][1,2,4]triazin-7-yl)methyl)-3-methylpyridin-2-yl)piperazin-1-yl)ethan-1-one] | 210 nM |  |
| CCCCOc1nc(N)c2ncc(Cc3cnc(N4CCN(CC(=O)N(C)C)CC4)c(C)c3)n2n1 [Compound B72, 2-(4-(5-((4-amino-2-butoxyimidazo[2,1-f][1,2,4]triazin-7-yl)methyl)-3-methylpyridin-2-yl)piperazin-1-yl)-N,N-dimethylacetamide] | 493 nM |  |
| CCCCOc1nc(N)c2ncc(Cc3cnc(N4CCC(N5CCOCC5)CC4)c(C)c3)n2n1 [Compound B108, 2-butoxy-7-((5-methyl-6-(4-morpholinopiperidin-1-yl)pyridine-3-yl)methyl)imidazo[2,1-f][1,2,4]triazin-4-amine] | 159 nM |  |
